Measurements as given in patent US4987150A, “Agent for inhibiting binding of 5-dihydro-testosterone with androgen receptor as well as process for obtaining same” (Kabushiki Kaisha Vitamin Kenkyusho, priority 1987, dated 1991).

Target: T1, androgen receptor (Mesocricetus auratus, UniProt A0A1U7QL32)
T1 construct: a sebaceous gland in flank organ was excised and homogenized; from tissue; host or cells: male Syrian hamster flank organ sebaceous gland, 16 hours after castration; supernatant of homogenate centrifuged at 30,000 rpm for 1 hour
T1 sequence (A0A1U7QL32 1-900): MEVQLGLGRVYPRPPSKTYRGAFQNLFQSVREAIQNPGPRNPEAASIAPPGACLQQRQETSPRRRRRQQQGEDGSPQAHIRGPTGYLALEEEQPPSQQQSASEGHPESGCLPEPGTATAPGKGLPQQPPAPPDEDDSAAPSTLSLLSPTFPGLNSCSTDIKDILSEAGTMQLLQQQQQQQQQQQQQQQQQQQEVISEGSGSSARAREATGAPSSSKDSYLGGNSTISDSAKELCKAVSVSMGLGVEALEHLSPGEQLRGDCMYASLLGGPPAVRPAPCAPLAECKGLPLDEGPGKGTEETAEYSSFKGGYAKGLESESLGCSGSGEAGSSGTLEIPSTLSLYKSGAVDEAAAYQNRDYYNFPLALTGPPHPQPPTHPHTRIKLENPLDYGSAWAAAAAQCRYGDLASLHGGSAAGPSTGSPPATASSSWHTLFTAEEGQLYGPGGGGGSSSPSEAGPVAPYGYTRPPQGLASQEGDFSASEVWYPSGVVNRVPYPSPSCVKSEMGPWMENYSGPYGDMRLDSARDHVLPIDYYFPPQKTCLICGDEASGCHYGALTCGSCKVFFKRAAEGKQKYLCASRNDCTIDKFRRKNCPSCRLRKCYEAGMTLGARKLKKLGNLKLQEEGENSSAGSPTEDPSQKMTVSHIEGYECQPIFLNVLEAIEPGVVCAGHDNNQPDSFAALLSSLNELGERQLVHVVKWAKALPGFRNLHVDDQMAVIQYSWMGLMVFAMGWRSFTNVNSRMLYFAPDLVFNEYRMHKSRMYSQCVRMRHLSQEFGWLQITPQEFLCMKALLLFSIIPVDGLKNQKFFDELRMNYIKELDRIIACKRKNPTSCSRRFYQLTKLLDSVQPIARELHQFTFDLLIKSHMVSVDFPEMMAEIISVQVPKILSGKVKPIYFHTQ
Assay: Inhibition of [3H]R1881 binding with androgen receptor (Pharmacological Test Example 1; also Test Example 2)
Parameters: species or system male Syrian hamster (sebaceous gland in flank organ)
Details: chemically synthesized xanthones; calculated from inhibition rate; 1 nM [3H]R1881, 0° C., 16 hours; read-out: Concentration for 50% Inhibition
Method: (a) Preparation of androgen receptor
From a male Syrian hamster 16 hours after castration, a sebaceous gland in flank organ was excised and homogenized in 5-10 times (volume) of 50 mM-Tris-HCl buffer (pH 7.4) containing 1.5 mM-EDTA, 1 mM-DTT, 10 mM-Na2 MoO4, and 10% (w/v) glycerol. The homogenate was centrifuged at 3,000 rpm and 0°-4° C. for 10 minutes to obtain the supernatant, which was further centrifuged at 30,000 rpm and 0°-4° C. for 1 hour to obtain the supernatant to be employed as androgen receptor.
(b) Determination of inhibitory activity
Then the mixture was added with a suspension (500 μl) of 0.5% charcoal and 0.05% dextran T-70. After standing at 0° C. for 10 minutes, the mixture was centrifuged at 3,000 rpm for 10 minutes. The supernatent (300 μl) was mixed with a liquid scintillator to measure the radioactivity due to binding of [^3 H]R1881 with the androgen receptor in scintillation counter. The inhibition rate of each extract was calculated according to the following equation.
Inhibition (%)=[(c-s)/c]×100 […]
c: specific binding amount of [^3 H]R1881 with androgen receptor without addition of test sample; and s: specific binding amount of [^3 H]R1881 with androgen receptor with addition of the test sample.

SMILES	IC50
O=c1c2c(O)cc(O)cc2oc2cc(O)cc(O)c12 [B]	5.1 µM
O=c1c2c(O)cccc2oc2cc(O)cc(O)c12 [F]	20 µM
O=c1c2ccccc2oc2cc(O)cc(O)c12 [G]	53 µM

Further lines, results first:

IC50	SMILES
8 µM	O=c1c2c(O)cc(O)cc2oc2c(O)ccc(O)c12 [A]
34 µM	O=c1c2cccc(O)c2oc2cc(O)cc(O)c12 [D]
7.6 µM	O=c1c2ccc(O)cc2oc2cccc(O)c12 [H]
4.1 µM	O=c1c2ccc(O)cc2oc2cc(O)cc(O)c12 [E]
1.8 µM	O=c1c2ccc(O)cc2oc2c(O)ccc(O)c12 [C]

Same assay, conditions: statement in words

SMILES	inhibition of binding of 5α-DHT with androgen receptor
O=c1c2c(O)cc(O)cc2oc2c(O)ccc(O)c12 [Test sample A, 1,3,5,8-Tetrahydroxyxanthone]	shows the inhibition of binding of 5α-DHT with androgen receptor

Tested on: 5α-reductase
Assay: not given
Details: reported in Jap. Pat. No. 60-126218 (A); cited from earlier work

SMILES	inhibition of the activity of 5α-reductase
CC1(C)CC[C@]2(C(=O)O)CC[C@]3(C)C(=CC[C@@H]4[C@@]5(C)CC[C@H](O)C(C)(C)[C@@H]5CC[C@]43C)[C@@H]2C1 [oleanolic acid]	showing the inhibition
